Measurements as given in ChEMBL document CHEMBL1201862, “PubChem BioAssay data set” (2004).
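Five compound concentrations were applied to cells in 96-well plates for 48 hours; endpoints were derived by simple linear interpolation of the resulting dose-response curve. At the GI50, growth is halved.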 Active and inactive are the calls of the source. Cut-off read from the data, not from the text of the source: active = GI50 up to about 1.1 µM and inactive = higher.

Legend:
Assay in all cases: NCI-60 cell line screen, 48 h
A498 = system: A498
A549 = system: A549
ACHN = system: ACHN
CCRF-CEM = system: CCRF-CEM
COLO 205 = system: COLO 205
DLD-1 = system: DLD-1
HCC 2998 = system: HCC 2998
HCT-116 = system: HCT-116
HL-60 = system: HL-60
HOP-18 = system: HOP-18
HOP-62 = system: HOP-62
HOP-92 = system: HOP-92
HT-29 = system: HT-29
IGROV-1 = system: IGROV-1
K562 = system: K562
KM12 = system: KM12
LXFL 529 = system: LXFL 529
M19-MEL = system: M19-MEL
MOLT-4 = system: MOLT-4
NCI-H226 = system: NCI-H226
NCI-H23 = system: NCI-H23
NCI-H460 = system: NCI-H460
NCI-H522 = system: NCI-H522
OVCAR-3 = system: OVCAR-3
OVCAR-5 = system: OVCAR-5
OVCAR-8 = system: OVCAR-8
RPMI-8226 = system: RPMI-8226
SF-268 = system: SF-268
SF-295 = system: SF-295
SF-539 = system: SF-539
SK-MEL-28 = system: SK-MEL-28
SK-MEL-5 = system: SK-MEL-5
SK-OV-3 = system: SK-OV-3
SNB-19 = system: SNB-19
SNB-75 = system: SNB-75
SR = system: SR
SW-620 = system: SW-620
TK-10 = system: TK-10
U-251 = system: U-251
UACC-257 = system: UACC-257
UACC-62 = system: UACC-62
UO-31 = system: UO-31
CAKI-1 = system: CAKI-1
DMS-114 = system: DMS-114
DMS-273 = system: DMS-273
EKVX = system: EKVX
HCT-15 = system: HCT-15
KM-20L2 = system: KM-20L2
M14 = system: M14
Malme-3M = system: Malme-3M
OVCAR-4 = system: OVCAR-4
RXF 393 = system: RXF 393
SK-MEL-2 = system: SK-MEL-2
SN12C = system: SN12C
SNB-78 = system: SNB-78
XF498 = system: XF498
LOX IMVI = system: LOX IMVI
MCF7 = system: MCF7
NCI/ADR-RES = system: NCI/ADR-RES

## COc1ccc(/C=N/n2c(C)nc3c(sc(=S)n3-c3ccccc3)c2=O)cc1
A498
  GI50: 36 µM (inactive)
A549
  GI50: > 100 µM (inactive)
ACHN
  GI50: > 100 µM (inactive)
CCRF-CEM
  GI50: 21.1 µM (inactive)
COLO 205
  GI50: > 100 µM (inactive)
DLD-1
  GI50: > 100 µM (inactive)
HCC 2998
  GI50: > 100 µM (inactive)
HCT-116
  GI50: > 100 µM (inactive)
HL-60
  GI50: 21.6 µM (inactive)
HOP-18
  GI50: > 100 µM (inactive)
HOP-62
  GI50: 66.8 µM (inactive)
HOP-92
  GI50: 40.7 µM (inactive)
HT-29
  GI50: 37.2 µM (inactive)
IGROV-1
  GI50: > 100 µM (inactive)
K562
  GI50: 25.6 µM (inactive)
KM12
  GI50: > 100 µM (inactive)
LXFL 529
  GI50: 49 µM (inactive)
M19-MEL
  GI50: 63.2 µM (inactive)
MOLT-4
  GI50: 34.4 µM (inactive)
NCI-H226
  GI50: > 100 µM (inactive)
NCI-H23
  GI50: > 100 µM (inactive)
NCI-H460
  GI50: 31.6 µM (inactive)
NCI-H522
  GI50: 21.4 µM (inactive)
OVCAR-3
  GI50: 45.5 µM (inactive)
OVCAR-5
  GI50: > 100 µM (inactive)
OVCAR-8
  GI50: > 100 µM (inactive)
RPMI-8226
  GI50: 27 µM (inactive)
SF-268
  GI50: 44.8 µM (inactive)
SF-295
  GI50: 37.2 µM (inactive)
SF-539
  GI50: 47.3 µM (inactive)
SK-MEL-28
  GI50: 43.7 µM (inactive)
SK-MEL-5
  GI50: > 100 µM (inactive)
SK-OV-3
  GI50: > 100 µM (inactive)
SNB-19
  GI50: 82.4 µM (inactive)
SNB-75
  GI50: 14.4 µM (inactive)
SR
  GI50: 44 µM (inactive)
SW-620
  GI50: > 100 µM (inactive)
TK-10
  GI50: > 100 µM (inactive)
U-251
  GI50: > 100 µM (inactive)
UACC-257
  GI50: 62.7 µM (inactive)
UACC-62
  GI50: 60.5 µM (inactive)
UO-31
  GI50: > 100 µM (inactive)

## Cc1cc2c(ccc[n+]2[O-])[n+]([O-])c1
A549
  GI50: > 100 µM (inactive)
ACHN
  GI50: > 100 µM (inactive)
CAKI-1
  GI50: > 100 µM (inactive)
CCRF-CEM
  GI50: > 100 µM (inactive)
COLO 205
  GI50: > 100 µM (inactive)
DLD-1
  GI50: > 100 µM (inactive)
DMS-114
  GI50: > 100 µM (inactive)
DMS-273
  GI50: > 100 µM (inactive)
EKVX
  GI50: > 100 µM (inactive)
HCC 2998
  GI50: > 100 µM (inactive)
HCT-116
  GI50: > 100 µM (inactive)
HCT-15
  GI50: > 100 µM
HL-60
  GI50: > 100 µM (inactive)
HOP-62
  GI50: > 100 µM (inactive)
HOP-92
  GI50: > 100 µM (inactive)
HT-29
  GI50: > 100 µM (inactive)
IGROV-1
  GI50: > 100 µM (inactive)
K562
  GI50: > 100 µM (inactive)
KM-20L2
  GI50: > 100 µM (inactive)
KM12
  GI50: > 100 µM (inactive)
LXFL 529
  GI50: > 100 µM (inactive)
M14
  GI50: > 100 µM (inactive)
M19-MEL
  GI50: > 100 µM (inactive)
MOLT-4
  GI50: > 100 µM (inactive)
Malme-3M
  GI50: > 100 µM (inactive)
NCI-H226
  GI50: > 100 µM (inactive)
NCI-H23
  GI50: > 100 µM (inactive)
NCI-H460
  GI50: > 100 µM (inactive)
NCI-H522
  GI50: > 100 µM (inactive)
OVCAR-3
  GI50: > 100 µM (inactive)
OVCAR-4
  GI50: > 100 µM (inactive)
OVCAR-5
  GI50: > 100 µM (inactive)
OVCAR-8
  GI50: > 100 µM (inactive)
RPMI-8226
  GI50: > 100 µM (inactive)
RXF 393
  GI50: 4.74 µM (inactive)
SF-268
  GI50: > 100 µM (inactive)
SF-295
  GI50: > 100 µM (inactive)
SF-539
  GI50: > 100 µM (inactive)
SK-MEL-28
  GI50: > 100 µM (inactive)
SK-MEL-2
  GI50: > 100 µM (inactive)
SK-MEL-5
  GI50: > 100 µM (inactive)
SK-OV-3
  GI50: > 100 µM (inactive)
SN12C
  GI50: > 100 µM (inactive)
SNB-19
  GI50: > 100 µM (inactive)
SNB-75
  GI50: > 100 µM (inactive)
SNB-78
  GI50: > 100 µM (inactive)
SR
  GI50: > 100 µM (inactive)
SW-620
  GI50: > 100 µM (inactive)
TK-10
  GI50: > 100 µM (inactive)
U-251
  GI50: > 100 µM (inactive)
UACC-257
  GI50: > 100 µM (inactive)
UACC-62
  GI50: > 100 µM (inactive)
UO-31
  GI50: > 100 µM (inactive)
XF498
  GI50: > 100 µM (inactive)

## NC(Cc1c[nH]c2ccccc12)C(=O)O (stereo not drawn) [DL-TRYPTOPHAN]
A498
  GI50: > 13.9 µM (inactive)
A549
  GI50: > 300 µM (inactive)
CAKI-1
  GI50: > 300 µM (inactive)
CCRF-CEM
  GI50: > 300 µM (inactive)
COLO 205
  GI50: > 300 µM (inactive)
DLD-1
  GI50: > 300 µM (inactive)
DMS-114
  GI50: > 300 µM (inactive)
DMS-273
  GI50: > 300 µM (inactive)
EKVX
  GI50: > 300 µM (inactive)
HCC 2998
  GI50: > 300 µM (inactive)
HCT-116
  GI50: > 300 µM (inactive)
HCT-15
  GI50: 64.6 µM
HL-60
  GI50: > 300 µM (inactive)
HOP-18
  GI50: 54.1 µM (inactive)
HOP-62
  GI50: > 300 µM (inactive)
HOP-92
  GI50: > 300 µM (inactive)
HT-29
  GI50: > 300 µM (inactive)
IGROV-1
  GI50: > 300 µM (inactive)
K562
  GI50: 204 µM (inactive)
KM-20L2
  GI50: > 300 µM (inactive)
KM12
  GI50: > 300 µM (inactive)
LOX IMVI
  GI50: > 300 µM (inactive)
M19-MEL
  GI50: > 300 µM (inactive)
MCF7
  GI50: > 300 µM (inactive)
MOLT-4
  GI50: > 300 µM (inactive)
Malme-3M
  GI50: > 300 µM (inactive)
NCI-H226
  GI50: 30 µM (inactive)
NCI-H23
  GI50: > 300 µM (inactive)
NCI-H460
  GI50: > 300 µM (inactive)
NCI-H522
  GI50: > 300 µM (inactive)
NCI/ADR-RES
  GI50: > 300 µM (inactive)
OVCAR-3
  GI50: > 300 µM (inactive)
OVCAR-4
  GI50: > 300 µM (inactive)
OVCAR-5
  GI50: > 300 µM (inactive)
OVCAR-8
  GI50: 231 µM (inactive)
RPMI-8226
  GI50: > 300 µM (inactive)
RXF 393
  GI50: > 300 µM (inactive)
SF-268
  GI50: > 300 µM (inactive)
SF-295
  GI50: > 300 µM (inactive)
SF-539
  GI50: > 300 µM (inactive)
SK-MEL-28
  GI50: > 300 µM (inactive)
SK-MEL-2
  GI50: > 300 µM (inactive)
SK-MEL-5
  GI50: > 300 µM (inactive)
SK-OV-3
  GI50: > 300 µM (inactive)
SN12C
  GI50: 3.74 µM (inactive)
SNB-19
  GI50: > 300 µM (inactive)
SNB-75
  GI50: > 300 µM (inactive)
SNB-78
  GI50: > 300 µM (inactive)
SW-620
  GI50: > 300 µM (inactive)
U-251
  GI50: > 300 µM (inactive)
UACC-257
  GI50: > 300 µM (inactive)
UACC-62
  GI50: > 300 µM (inactive)
UO-31
  GI50: > 300 µM (inactive)
